According to US12679839B2, “Cyclin-dependent kinase 7 (CDK7) non-covalent inhibitors” (JANSSEN PHARMACEUTICA NV, priority 2020, dated 2026):

How the values were obtained:
[1] = target: T1, CDK7/Cyclin H/MAT-1 complex (Homo sapiens, UniProt P50613); test: Absorbance kinetic assay (20 nM CDK7/Cyclin H/MAT-1 complex); assay type: biochemical; settings: for IC50: read-out: CDK7 (20 nM) pIC50 (converted)
T1 construct: Human CDK7 (amino acids 1-346); His6 (N); TEV protease cleavage site (N); made in house; host or cells: baculovirus-SF9 insect cells
T1 sequence (P50613 whole entry, the tested form may be a part): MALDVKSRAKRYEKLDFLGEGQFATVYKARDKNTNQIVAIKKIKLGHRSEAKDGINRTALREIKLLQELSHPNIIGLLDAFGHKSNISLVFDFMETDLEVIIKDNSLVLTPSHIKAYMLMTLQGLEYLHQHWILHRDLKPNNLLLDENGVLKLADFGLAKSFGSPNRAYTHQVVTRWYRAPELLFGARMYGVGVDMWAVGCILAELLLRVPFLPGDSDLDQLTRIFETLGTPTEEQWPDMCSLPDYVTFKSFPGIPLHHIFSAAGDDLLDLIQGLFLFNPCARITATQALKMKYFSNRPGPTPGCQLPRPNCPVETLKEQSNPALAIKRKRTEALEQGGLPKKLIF
T1 sequence (P51946 whole entry partner, the tested form may be a part): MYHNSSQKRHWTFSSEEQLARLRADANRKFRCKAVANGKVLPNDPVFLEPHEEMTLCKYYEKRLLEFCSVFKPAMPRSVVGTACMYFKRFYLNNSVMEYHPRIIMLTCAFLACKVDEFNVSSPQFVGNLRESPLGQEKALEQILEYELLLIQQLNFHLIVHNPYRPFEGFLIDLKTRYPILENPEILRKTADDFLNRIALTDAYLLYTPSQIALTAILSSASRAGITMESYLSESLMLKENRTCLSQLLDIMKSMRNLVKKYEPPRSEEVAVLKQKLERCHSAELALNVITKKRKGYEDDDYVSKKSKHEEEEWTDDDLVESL
T1 sequence (P51948 whole entry partner, the tested form may be a part): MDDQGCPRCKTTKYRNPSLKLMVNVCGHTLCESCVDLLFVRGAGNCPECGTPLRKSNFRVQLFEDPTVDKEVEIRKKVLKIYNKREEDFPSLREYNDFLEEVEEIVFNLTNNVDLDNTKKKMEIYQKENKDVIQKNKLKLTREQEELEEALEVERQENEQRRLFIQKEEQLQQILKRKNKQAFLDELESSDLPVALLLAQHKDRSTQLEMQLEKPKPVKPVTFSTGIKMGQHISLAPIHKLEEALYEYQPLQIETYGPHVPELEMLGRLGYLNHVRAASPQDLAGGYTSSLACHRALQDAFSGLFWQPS
Method: Human CDK7 (amino acids 1-346) containing an N-terminal His6-tag followed by a tobacco etch virus (TEV) protease cleavage site, human MAT1 (amino acids 1-309) and human cyclin H (amino acids 1-323) were co-expressed in the baculovirus-SF9 insect cell expression system to generate a trimeric complex. Cell pellets were collected 72 h post-infection and were resuspended by Dounce homogenization in 20 mM Hepes-NaOH (pH 8.0), 300 mM NaCl, 10% glycerol, 2 mM dithiothreitol DTT), and 20 mM Imidazole supplemented with cOmplete™ Protease Inhibitor Cocktail (Roche) and 25 U/mL Benzonase® Nuclease HC according to the manufacturer's instructions. Cells were lysed by passing through a Microfluidics M110Y Microfluidizer 3 times at 600 kPa followed by centrifugation at 38,000×g at 4° C. for 1 hour. The supernatant was loaded onto a pre-equilibrated HisTrap HP column and eluted in 20 mM Hepes-NaOH (pH 8.0), 50 mM NaCl, 10% glycerol, 2 mM DTT, and 400 mM Imidazole. The eluate was further purified by gel filtration on a Superdex S200 16/60 column and eluted with 20 mM Hepes-NaOH (pH 7.5), 50 mM NaCl, 10% Glycerol, 2 mM DTT. Fractions containing a trimeric complex of CDK7, cyclin H, and MAT1 in a 1:1:1 ratio were pooled and concentrated to 3 mg/mL in a 10 kDa MWCO concentrator, and diluted to a final concentration of 1.6 mg/mL in 11.1 mM Hepes-NaOH (pH 8.0), 27.8 mM NaCl, 1.1 mM DTT and 50% glycerol. […]
Absorbance Kinetic Assay (20 nM CDK7/Cyclin H/MAT-1 Complex)
CDK7 complex catalyzes the ATP-dependent phosphorylation of a peptide substrate CDK7/9-tide that is derived from RNA Pol II to produce phosphorylated peptide and ADP. The kinase reaction product ADP was converted to lactate and NAD^+ in the presence of phosphoenol pyruvate (PEP), NADH and coupling enzymes lactate dehydrogenase (LDH) and pyruvate kinase (PK). CDK7 complex catalytic activity was measured by following the absorbance intensity continuously at 340 nm that corresponds with the depletion of NADH.
Absorbance at 340 nm was followed kinetically at an interval of 2 minutes for 8 hours.
The assay was carried out with 100 μl reaction volume per well in a 384-well plate that was pre-spotted nanoliter volume of compounds by LabCyte Echo 555. Compound dilution plates were made by 2-fold (could vary upon necessity) dilution in DMSO for 11 concentrations plus a DMSO control of uninhibited reaction. 2× substrate and coupling reagent mixture was added to the assay plate followed by an addition of an equal volume of 40 nM CDK7/Cyclin H/MAT-1 complex. After mixing, assay plates were spun at 2000 rpm for 3 minutes and then transferred to the plate reader for data collection.
For reversible inhibitors, the absorbance reaction progress curves were linear. The steady-state rate was derived from the slope of the linear curves. The following equation is applied to determine percent inhibition.
[formula] • νo=max rate (uninhibited rate) • νi=inhibited rate
The IC50 value is calculated by the following equation:
[formula] where νo is the rate in the absence of inhibitor, νmin is the rate at highest inhibitor concentration, and h is the Hill coefficient. Flint Assay (5 nM CDK7/Cyclin H/MAT-1 Complex)

[2] = test system: RNA polymerase II Serine 5 phosphorylation (Rpb1 CTD), downstream substrate of CDK7; test: Imaging-based cellular RNA PolII Ser5 phosphorylation assay in A549 cells; assay type: cell-based, human; settings: Homo sapiens, A549, 3 h, challenged with compound for 3 hours, read-out: pRNA polII Ser5 (A549) pIC50 (converted)
Text: Dosing curves were fitted using the following equation to obtain IC50: Y=Bottom+(Top−Bottom)/(1+10^((log IC50−X)*Hill slope)) where X=log10 of the compound concentration; top and bottom can be defined by PC and NC respectively. Imaging-Based Cellular RNA PolII Ser5 Phosphorylation Assay
To evaluate inhibition of CDK7 kinase activity, a 384-well automated imaging assay was used. This assay detects Serine 5 phosphorylation on a unique heptapeptide sequence in the C-terminal domain of Rpb1 subunit of RNA polymerase II, the downstream substrate of CDK7. This heptapeptide sequence is repeated up to 52 times in the CTD of Rpb1.
A549 adenocarcinoma human alveolar basal epithelial cells (ATCC, CCL-185), rabbit Phospho-Rpb1 CTD (Ser5) antibody (D9N51 (Cell Signaling Technology)), DMEM (Sigma), Fetal Bovine Serum (Biowest), L-glutamine (Sigma), Penicillin/Streptomycin (Life Technologies), Sodium Pyruvate (Sigma), Hepes (Sigma), poly-D-lysine coated μclear 384 black plates (Greiner), formaldehyde (PolySciences), D-PBS (Sigma), Methanol (Sigma), Alexa Fluor 488 goat anti rabbit IgG secondary antibody (Life Technologies), HCS CellMask™ Deep Red stain (Life Technologies), Hoechst 33258 (Invitrogen).
RNA Polymerase II Serine 5 phosphorylation was detected using a specific rabbit Phospho-Rpb1 CTD (Ser5) antibody. A549 adenocarcinoma human alveolar basal epithelial cells were seeded in 20 μl medium (DMEM supplemented with 1% Fetal Bovine Serum (heat inactivated 30′ 56° C.), 2 mM L-glutamine, 50 U/ml penicillin 50 μg/ml streptomycin, 1 mM sodium pyruvate and 50 mM hepes) at 1000 cells/well and cultured in poly-D-lysine coated μclear 384 black plates for 20 hours at 37° C. and 5% CO2.
After incubation cells were challenged with compound for 3 hours at 37° C. and 5% CO2. DMSO was used as high control and as low control 10 μM of LDC4297 reference compound was used. 40 nl of test compounds and controls were spotted in cell plates using Echo Liquid Handler (Echo 550, Labcyte). Incubation was followed by 20 minutes fixation with 20 μl 10% formaldehyde at room temperature. Medium/formaldehyde solution was removed, plates were washed 3 times with 30 μl D-PBS (w/o Ca^2+ and Ma^2+) and permeabilization was done by adding 20 μl ice cold methanol for 20 minutes. Cells were washed again 3 times with 30 μl D-PBS and 20 μl blocking buffer (25 ml fetal bovine serum in 500 ml D-PBS) was added for 1 hour.
After removing blocking buffer 20 μl 1/1000 primary antibody rabbit. Phospho-Rpb1 CTD (Ser5) antibody was added which binds to the phosphorylated Serine5 of the heptapeptide sequences in the CTD of Rpb1. Primary antibody was removed, and plates were washed 3 times with 30 μl D-PBS followed by addition of 20 μl 1/2000 Alexa Fluor 488 goat anti rabbit IgG secondary antibody for final detection of Phospho-Rpb1 CTD (Ser5) together with 1/5000 HCS CellMask™ Deep Red stain for membrane staining and 1/5000 Hoechst 33258 for nucleus staining. Last, plates were washed 2 times with 30 μl D-PBS and wells were filled with 40 μL D-PBS, plates were sealed (Thermowell sealing tape) and stored at 4° C. until reading. Plates were read with Opera Phenix (Perkin Elmer) with 10× air objective. Data were calculated and analyzed in Phaedra.
IC50 values were calculated using the following formula:
Average value of all HC's and all LC's are used for normalizations. % Effect=100−(sample−LC)/(HC−LC)×100% Control=(sample/HC)×100
A best-fit curve is fitted by a minimum sum of squares method to the plot of % Control vs. compound concentration. From this an IC50 value can be obtained. An estimate of the slope of the plot in terms of the Hill coefficient is also obtained.

IC50 [1] [nM] | IC50 [2] [nM] | CDK7 (20 nM) pIC50 [1] | Structure (SMILES)
724 | 4270 | – | C[C@@H]1CN(C(=O)[C@H]2CCN(C)C[C@@H]2c2ccccc2)[C@H](C)c2nc(NC3CCOCC3)ncc21 (relative stereo) [Compound 182]
> 10000 | > 10000 | – | CO[C@H]1CC[C@H](Nc2ncc3c(n2)CN(C(=O)[C@@H]2CCN(C)C[C@H]2c2ccc(C)nc2)[C@H](C)C3)CC1 (relative stereo) [Compound 109]
35.5 | ~8130 | – | C[C@@H]1Cc2cnc(N[C@@H]3CCN(C)C(=O)C3)nc2CN1C(=O)[C@H]1CCN(C)C[C@@H]1c1ccccc1 (relative stereo) [Compound 4]
214 | 8320 | – | C[C@@H]1Cc2cnc(NC3CCOCC3)nc2CN1C(=O)[C@H]1CCN(C)C[C@@H]1C1CC1 (racemic) [Compound 111]
72.4 | ~39.8 | – | C[C@@H]1Cc2cnc(NC3CCOCC3)nc2CN1C(=O)[C@H]1CCN(C)C[C@@H]1c1cccc(Cl)c1 (relative stereo) [Compound 119]
– | 162 | 6.83 | CC(C)N1CC[C@H](C(=O)N2Cc3nc(NC4CCOCC4)ncc3C[C@H]2C)[C@@H](c2cccc(F)c2)C1 (single isomer, unassigned) [Compound 163]
– | 4070 | 6.06 | CC(C)N1CC[C@@H](C(=O)N2Cc3nc(NC4CCOCC4)ncc3C[C@H]2C)[C@H](c2cccc(F)c2)C1 (single isomer, unassigned) [Compound 164]
– | > 10000 | 6.59 | C[C@@H]1Cc2cnc(NCC(=O)N3CCCCC3)nc2CN1C(=O)[C@H]1CCN(C)C[C@@H]1c1ccccc1 [Compound 28]
– | > 10000 | 5.87 | C[C@@H]1Cc2cnc(NC3CCOCC3)nc2CN1C(=O)[C@@H]1CC[C@H](N(C)C)CN1c1ccccc1 (mixture of isomers) [Compound 168]
25.7 | 537 | – | C[C@H]1c2nc(NC3CCOCC3)ncc2CCN1C(=O)[C@H]1CCN(C)C[C@@H]1c1ccccc1 (relative stereo) [Compound 184]
12.9 | 1230 | – | CO[C@H]1CC[C@H](Nc2ncc3c(n2)CN(C(=O)C2CCN(C)CC2c2ccnc(C)c2)[C@H](C)C3)CC1 (stereo partly drawn) [Compound 104]
– | 513 | 7.89 | CN1CCN(C(=O)N2Cc3nc(NC4CCOCC4)ncc3CC2(C)C)[C@@H](c2ccccc2)C1 [Compound 205]
– | 1230 | 7.66 | C[C@@H]1Cc2cnc(NC3CCOCC3)nc2CN1C(=O)N1CCNC[C@@H]1c1ccccc1 [Compound 208]
– | – | 6.95 | CC(C)N1CC[C@H](C(=O)N2Cc3nc(NC4CCOCC4)ncc3C[C@H]2C)[C@@H](c2ccc(Cl)c(F)c2)C1 (single isomer, unassigned) [Compound 162]

Further lines, the compound ahead of its results:

Structure (SMILES) | IC50 [1] [nM] | IC50 [2] [nM] | CDK7 (20 nM) pIC50 [1]
C[C@@H]1Cc2cnc(NC3CCOCC3)nc2CN1C(=O)[C@@H]1CCN(C)C[C@H]1C1CC1 (relative stereo) [Compound 112] | > 10000 | > 10000 | –
C[C@@H]1Cc2cnc(NC3CCOCC3)nc2CN1C(=O)[C@H]1CCN(C)C[C@@H]1c1ccc(F)cc1 (relative stereo) [Compound 120] | 12 | ~67.6 | –
C[C@@H]1C[C@H](C(=O)N2Cc3nc(NC4CCOCC4)ncc3C[C@H]2C)[C@@H](c2ccccc2)CN1C (relative stereo) [Compound 170a] | 794 | > 10000 | –
CO[C@]1(C)CC[C@H](Nc2ncc3c(n2)CN(C(=O)[C@H]2CCN(C)C[C@@H]2c2ccccc2)[C@H](C)C3)CC1 [Compound 11] | 13.8 | 1350 | –
C[C@@H]1Cc2cnc(NCC3CCOC3)nc2CN1C(=O)[C@H]1CCN(C)C[C@@H]1c1ccccc1 (stereo partly drawn) [Compound 26] | – | 302 | 7.85
Cc1cc([C@H]2CN(C)CC[C@@H]2C(=O)N2Cc3nc(NC4CCOCC4)ncc3C[C@H]2C)ccn1 (relative stereo) [Compound 103] | > 10000 | > 10000 | –
C[C@@H]1Cc2cnc(NC3CC(C)(C)OC(C)(C)C3)nc2CN1C(=O)[C@H]1CCN(C)C[C@@H]1c1ccccc1 [Compound 24] | – | 126 | 7.96
C[C@H](Nc1ncc2c(n1)CN(C(=O)[C@H]1CCN(C)C[C@@H]1c1ccccc1)[C@H](C)C2)c1ccccc1 [Compound 23] | – | 302 | 7.97
C[C@@H]1Cc2cnc(NCc3cn(C)cn3)nc2CN1C(=O)[C@H]1CCN(C)C[C@@H]1c1ccccc1 [Compound 63] | – | > 10000 | 7.38
C[C@@H]1Cc2cnc(NCc3ccccn3)nc2CN1C(=O)[C@H]1CCN(C)C[C@@H]1c1ccccc1 [Compound 35] | – | 200 | 7.78
CC[C@H]1Cc2cnc(NC3CCOCC3)nc2CN1C(=O)[C@H]1CCN(C)C[C@@H]1c1ccccc1 (relative stereo) [Compound 186] | > 10000 | > 10000 | –
C[C@@H]1Cc2cnc(NC3CCOCC3)nc2CN1C(=O)[C@H]1CCN(C2CC2)C[C@@H]1c1ccccc1 (single isomer, unassigned) [Compound 161] | – | > 10000 | 6.74
